Some test systems named below: Malme-3M; M14; TK-10; RPMI-8226; BT-549; MDA-MB-231; NCI/ADR-RES; SN12C; CCRF-CEM; OVCAR-8; COLO 205; MOLT-4; SK-MEL-5; RXF 393; OVCAR-5; HL-60; SNB-19; HCT-15; NCI-H460; HOP-92.
Holding throughout (assay): inhibition of tumour cell growth, NCI panel, 48 h

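How tested: cells in 96-well plates exposed to compound for 48 hours at five concentrations. Abbreviation: GI50, concentration required for 50% inhibition of growth.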 Activity calls are given as the source filed them. No stated cut-off is given here; in the data, active = GI50 up to about 1.1 µM and inactive = higher.

As for `Cc1ccc(O)c(C(c2cccc(C(c3cc(C)ccc3O)c3cc(C)ccc3O)c2)c2cc(C)ccc2O)c1`, the GI50 was 1.87 µM (inactive) in the experiment on Malme-3M; 1.88 µM (inactive) in the experiment with M14; 1.82 µM (inactive) with TK-10; 1.55 µM (inactive) with RPMI-8226; 2.43 µM (inactive) in the experiment on BT-549; 1.25 µM (inactive) in the experiment on MDA-MB-231. For the same compound, the GI50 with NCI/ADR-RES was 3.01 µM (inactive); in the experiment on SN12C, 1.83 µM (inactive); in the experiment on CCRF-CEM, 2.38 µM (inactive); in the experiment with OVCAR-8, 2 µM (inactive); in the experiment on COLO 205, 1.21 µM (inactive); in the experiment on MOLT-4, 2.6 µM (inactive). Also, the GI50 in the experiment on SK-MEL-5 is 2.44 µM (inactive); in the experiment on RXF 393, 1.69 µM (inactive); in the experiment on OVCAR-5 it was 1.69 µM (inactive); in the experiment on HL-60 it was 2.01 µM (inactive); in the experiment with SNB-19 it was 1.89 µM (inactive); in the experiment with HCT-15, 1.87 µM.
As to `CC1=NC2(CCCCC2)N(Cl)C(=O)C1SC#N` (stereo unspecified), the GI50 in the experiment with Malme-3M was 18.2 µM (inactive); with M14 it was 16.2 µM (inactive); with TK-10, 20.3 µM (inactive); in the experiment with RPMI-8226 it was > 10 µM (inactive); with BT-549 it was 14.4 µM (inactive); in the experiment with MDA-MB-231, 17.6 µM (inactive). In addition, the GI50 was 20.3 µM (inactive) with NCI/ADR-RES; 19.4 µM (inactive) with SN12C; 2.58 µM (inactive) in the experiment on CCRF-CEM; > 10 µM (inactive) in the experiment with NCI-H460; 17.9 µM (inactive) in the experiment on OVCAR-8; 63.1 µM (inactive) in the experiment on COLO 205. Also, the GI50 in the experiment on MOLT-4 was 4.97 µM (inactive); in the experiment with SK-MEL-5, 18.2 µM (inactive); in the experiment on RXF 393, 18.3 µM (inactive); in the experiment on OVCAR-5 it was 22.8 µM (inactive); with HL-60, > 100 µM (inactive); in the experiment with SNB-19, 23.4 µM (inactive). The compound further had a GI50 with HCT-15 of 23.8 µM.
With `CC(=O)OC[C@@H](OC(C)=O)[C@H](OC(C)=O)[C@@H]1OC(C)(C)O[C@@H]1C1SCCCS1`, the GI50 in the experiment on Malme-3M, with M14, in the experiment on TK-10, in the experiment with RPMI-8226, in the experiment on BT-549 and in the experiment with MDA-MB-231 was > 100 µM (inactive) in each case. The GI50 with CCRF-CEM, in the experiment on NCI-H460, with OVCAR-8, with COLO 205, in the experiment on MOLT-4 and in the experiment on SK-MEL-5 was > 100 µM (inactive) in each case. Further, the GI50 in the experiment with RXF 393, in the experiment with OVCAR-5 and in the experiment with SNB-19 was > 100 µM (inactive) in each case.
For the compound `Cc1nn(C(=O)Cc2ccccc2)c2c1C(c1ccc(O)cc1)SC(=N)N2` (stereo unspecified), the GI50 in the experiment with Malme-3M, with M14, in the experiment with TK-10, in the experiment on RPMI-8226, in the experiment with BT-549 and in the experiment with MDA-MB-231 was > 100 µM (inactive) in each case. The GI50 with SN12C, in the experiment with CCRF-CEM, with NCI-H460, in the experiment with OVCAR-8, in the experiment on COLO 205 and in the experiment on MOLT-4 was > 100 µM (inactive) in each case. Moreover, the GI50 in the experiment on SK-MEL-5 is > 100 µM (inactive); in the experiment on HL-60, > 100 µM (inactive); in the experiment on SNB-19, > 100 µM (inactive); in the experiment on HCT-15, above 100 µM.
With `O=C(c1cc(Cl)ccc1Cl)N1CCN(C(=O)c2cc(Cl)ccc2Cl)CC1`, the GI50 with Malme-3M, with M14, in the experiment on TK-10, in the experiment with RPMI-8226, with BT-549 and with MDA-MB-231 was > 100 µM (inactive) in each case. Also, the GI50 is > 100 µM (inactive) with SN12C; > 100 µM (inactive) in the experiment with CCRF-CEM; > 100 µM (inactive) with NCI-H460; 30.2 µM (inactive) with OVCAR-8; 67.1 µM (inactive) in the experiment with HOP-92; > 100 µM (inactive) in the experiment with MOLT-4. Besides, the GI50 was 55.6 µM (inactive) in the experiment on SK-MEL-5; 67.1 µM (inactive) in the experiment with RXF 393; > 100 µM (inactive) in the experiment on OVCAR-5; > 100 µM (inactive) with HL-60; > 100 µM (inactive) in the experiment on SNB-19; above 100 µM in the experiment on HCT-15.
As for `CCOc1ccc(-n2nnc3c(N)nc(N)nc32)cc1`, the GI50 in the experiment on Malme-3M, in the experiment with M14, in the experiment with TK-10, in the experiment on RPMI-8226, with BT-549 and with MDA-MB-231 was > 100 µM (inactive) throughout. The GI50 in the experiment with NCI/ADR-RES, with SN12C, in the experiment on CCRF-CEM, with NCI-H460, in the experiment with OVCAR-8 and with HOP-92 was > 100 µM (inactive) in each case. Moreover, the GI50 with COLO 205 was > 100 µM (inactive); with MOLT-4 it was > 100 µM (inactive); in the experiment on SK-MEL-5, > 100 µM (inactive); with OVCAR-5, > 100 µM (inactive); in the experiment on HL-60 it was > 10 µM (inactive); with SNB-19 it was 29.1 µM (inactive). The same compound showed a GI50 in the experiment with HCT-15 above 100 µM.
Turning to `O=c1oc(-c2ccccc2)c(-c2ccccc2)n1-c1ccc(Br)cc1`, the GI50 with M14 is > 100 µM (inactive); in the experiment with TK-10 it was 31.8 µM (inactive); with BT-549 it was 25.5 µM (inactive); in the experiment with MDA-MB-231 it was 27.7 µM (inactive); in the experiment on SN12C, 71.3 µM (inactive); in the experiment with CCRF-CEM, 93.8 µM (inactive). The GI50 in the experiment with NCI-H460 was 62.1 µM (inactive); with OVCAR-8, 29.2 µM (inactive); in the experiment with HOP-92, 35.4 µM (inactive); in the experiment on COLO 205, > 100 µM (inactive); in the experiment on MOLT-4, > 100 µM (inactive); in the experiment with SK-MEL-5 it was 76.6 µM (inactive). Besides, the GI50 with RXF 393 was 36.3 µM (inactive); in the experiment on OVCAR-5, > 100 µM (inactive); in the experiment with HL-60, 39.5 µM (inactive); in the experiment on SNB-19, 31.8 µM (inactive); in the experiment with HCT-15, above 100 µM.
Consider `Cc1cc(C)nc(NC(=S)Nc2cccc(Cl)c2)c1`, for which the GI50 with Malme-3M is > 100 µM (inactive); in the experiment with M14, > 100 µM (inactive); with TK-10, > 35.9 µM (inactive); with RPMI-8226, > 100 µM (inactive); in the experiment on BT-549 it was > 100 µM (inactive); in the experiment on MDA-MB-231, > 100 µM (inactive). Besides, the GI50 is > 100 µM (inactive) in the experiment with NCI/ADR-RES; > 100 µM (inactive) in the experiment with SN12C; > 20 µM (inactive) with CCRF-CEM; > 45.8 µM (inactive) in the experiment with NCI-H460; > 100 µM (inactive) in the experiment on OVCAR-8; > 80.9 µM (inactive) in the experiment on COLO 205. For the same compound, the GI50 in the experiment with MOLT-4 is > 100 µM (inactive); with SK-MEL-5 it was > 10 µM (inactive); with RXF 393 it was > 100 µM (inactive); with OVCAR-5, > 100 µM (inactive); in the experiment on HL-60, > 100 µM (inactive); in the experiment with SNB-19, > 100 µM (inactive). This compound also had a GI50 in the experiment with HCT-15 above 100 µM.
Consider `Cc1nc2ccc(S(=O)(=O)Nc3ccc(Cl)cc3)cc2c(=O)n1NC(=O)CNc1ccc(Cl)cc1`, for which the GI50 with Malme-3M, with M14, in the experiment on TK-10, with RPMI-8226, with BT-549 and with MDA-MB-231 was > 100 µM (inactive) in each case. Besides, the GI50 in the experiment on NCI/ADR-RES, in the experiment on SN12C, with CCRF-CEM, in the experiment on NCI-H460, in the experiment with OVCAR-8 and in the experiment with HOP-92 was > 100 µM (inactive) in each case. The GI50 in the experiment on COLO 205 is > 100 µM (inactive); in the experiment with MOLT-4, > 100 µM (inactive); in the experiment on OVCAR-5, > 100 µM (inactive); in the experiment with HL-60, > 100 µM (inactive); in the experiment on SNB-19 it was > 100 µM (inactive); in the experiment on HCT-15 it was above 100 µM.
As for `NC(Cc1ccc(S(=O)(=O)O)cc1)C(=O)NC(Cc1ccc(S(=O)(=O)O)cc1)C(=O)O` (stereo unspecified), the GI50 with Malme-3M, with M14, with TK-10, with RPMI-8226, in the experiment with BT-549 and with MDA-MB-231 was > 100 µM (inactive) throughout. Besides, the GI50 in the experiment on NCI/ADR-RES, in the experiment on SN12C, with CCRF-CEM, with NCI-H460, in the experiment with OVCAR-8 and in the experiment with COLO 205 was > 100 µM (inactive) in each case. For the same compound, the GI50 is > 100 µM (inactive) in the experiment with MOLT-4; > 100 µM (inactive) in the experiment with SK-MEL-5; > 100 µM (inactive) in the experiment with RXF 393; > 100 µM (inactive) with OVCAR-5; > 100 µM (inactive) in the experiment with HL-60; above 100 µM in the experiment with HCT-15.
`Cc1cc(S(=O)(=O)Nc2nc(N)n(-c3ccccn3)n2)c(S)cc1Cl`: the GI50 with Malme-3M, with M14, with TK-10, with RPMI-8226, with BT-549 and with MDA-MB-231 was > 100 µM (inactive) in each case. In addition, the GI50 in the experiment on NCI/ADR-RES, with SN12C, in the experiment on CCRF-CEM, with NCI-H460, in the experiment with OVCAR-8 and in the experiment on COLO 205 was > 100 µM (inactive) throughout. In addition, the GI50 in the experiment with MOLT-4, in the experiment with SK-MEL-5, with RXF 393, in the experiment with OVCAR-5, with HL-60 and with SNB-19 was > 100 µM (inactive) each time. In the experiment on HCT-15, the GI50 is above 100 µM.

For the origin of these results see ChEMBL document CHEMBL1201862, “PubChem BioAssay data set” (2004).
